Where two headings read alike, the source gives them in different places.
How the values were obtained:
Saccharomyces cerevisiae = Saccharomyces cerevisiae MIC assays comparing free terpene emulsions with yeast-encapsulated terpenes; assay type: cell-based; conditions: free terpene emulsion; for Cidal MIC Free terpene emulsions: re-incubation in fresh medium
Experimental: One column was designated as a cell-only control and no terpene was added to these wells. Serial 2-fold dilutions were performed by transferring 100 μL from one row to the next a total of 7 times. […] Microtitre plates were incubated statically overnight at 30° C. […] Growth inhibition was visually confirmed by microscopy. For the free terpene emulsions, once the MIC had been determined for each formulation, the microtitre plates were centrifuged and the spent medium was removed from the growth-inhibited wells. The cells were resuspended in fresh medium (100 μL) and the plates were re-incubated overnight at 30° C. Assessment of growth inhibition was performed as before.

S. aureus = experiment: MIC of terpene emulsions and fresh or freeze-dried Baker's YP and SAF Mannan encapsulated terpenes; assay type: cell-based; conditions: for MIC: Staphylococcus aureus
Experimental: The results of a protocol performed to compare the MIC of fresh versus freeze dried hollow glucan particle encapsulated terpene formulations are shown below in Table 13. A simple terpene emulsion was also tested and the results are shown for comparison.

E. coli = conditions: cited from earlier work
[1] = Citral solution and stable suspension limits; assay type: physicochemical
[2] = Terpene stability by formation of a yellow colored oxidation product of citral; assay type: physicochemical
H. pylori = conditions: in vitro; cited from earlier work
[3] = encapsulated in Baker's YP, freeze dried, read-out: MIC μg/ml terpene, Bakers Freeze Dried
[4] = encapsulated in Baker's YP, fresh, read-out: MIC μg/ml terpene, Bakers Fresh
[5] = encapsulated in SAF Mannan, freeze dried, read-out: MIC μg/ml terpene, SAF Mannan Freeze Dried
[6] = encapsulated in SAF Mannan, fresh, read-out: MIC μg/ml terpene, SAF Mannan Fresh
[7] = terpene emulsion, not encapsulated, read-out: MIC μg/ml terpene, Emulsion

| Compound | MIC Free terpene emulsions (Saccharomyces cerevisiae) [ppm] | Cidal MIC Free terpene emulsions (Saccharomyces cerevisiae) [ppm] | MIC (S. aureus; [3]) [µg/mL] | MIC (S. aureus; [4]) [µg/mL] | MIC (S. aureus; [5]) [µg/mL] | MIC (S. aureus; [6]) [µg/mL] | MIC (S. aureus; [7]) [µg/mL] | also measured |
| --- | --- | --- | --- | --- | --- | --- | --- | --- |
| CC(C)=CCCC(C)=CC=O (mixture of isomers) [C (4)] | 125 | 250 |  |  |  |  |  |  |
| CC(C)=CCCC(C)=CC=O [Citral, 3,7-dimethyl-2,6-octadien-1-al] |  |  | 0.05 | 0.01 | > 0.03 | 0.01 | 0.94 | concentration in growth media that reduced the concentration of E. coli (E. coli): more than 0.01%; concentration with bactericidal effect (E. coli): 0.08%; concentration up to which a solution can be made [1]: about 500 ppm; concentration up to which a stable suspension can be formed [1]: about 2500 ppm; yellow color (citral oxidation product) over time ([2]; aqueous emulsion): turned a progressively increasing yellow color over time; yellow color (citral oxidation product) over time ([2]; encapsulated in Bakers YP): turned a progressively increasing yellow color over time; citral stability (yellow color over time) ([2]; encapsulated in SAF Mannan): increased citral stability; citral stability (absence of yellow colour) ([2]; loaded in SAF Mannan, after 24 hours at 37° C.): remains stable |
| C=CCc1ccc(O)c(OC)c1 [E (2)] | 125 | 250 |  |  |  |  |  |  |
| C=CCc1ccc(O)c(OC)c1 [Eugenol, eugenol] |  |  | 0.05 | 0.03 | 0.05 | 0.01 | 0.12 |  |
| CC(C)=CCC/C(C)=C/CO [G (1)] | 250 | 250 |  |  |  |  |  |  |
| CC(C)=CCC/C(C)=C/CO [Geraniol, geraniol] |  |  | 0.06 | 0.03 | > 0.03 | 0.02 | 0.47 | concentration that inhibited the growth of H. pylori (H. pylori): 2 mg/L |
| C=C(C)[C@@H]1CC=C(C)C(=O)C1 [L (5)] | 250 | 500 |  |  |  |  |  |  |
| Cc1ccc(C(C)C)c(O)c1 [T (3)] | 125 | 250 |  |  |  |  |  |  |
| L-carvone |  |  |  |  |  |  |  | MIC μg/ml terpene, Bakers Freeze Dried (S. aureus; encapsulated in Baker's YP, freeze dried): >0.04 µg/mL; MIC μg/ml terpene, Bakers Fresh (S. aureus; encapsulated in Baker's YP, fresh): 0.1 µg/mL; MIC μg/ml terpene, SAF Mannan Freeze Dried (S. aureus; encapsulated in SAF Mannan, freeze dried): >0.02 µg/mL; MIC μg/ml terpene, SAF Mannan Fresh (S. aureus; encapsulated in SAF Mannan, fresh): 0.01 µg/mL; MIC μg/ml terpene, Emulsion (S. aureus; terpene emulsion, not encapsulated): 3.75 µg/mL |
